Test systems include A498 renal; HT29 colon; OVCAR-4 ovarian; OVCAR-8 ovarian; SF-268 CNS; T-47D breast; U251 CNS; UACC-62 melanoma; KM12 colon; TK-10 renal.
Holding throughout (experiment): DTP human tumour cell line panel, 48 h

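Where inhibition never reached the appropriate level, the endpoint shown equals the highest concentration tested. Otherwise, values were interpolated linearly from a five-concentration, 48-hour dose response in 96-well plates. GI50 = concentration required for 50% inhibition of growth. TGI: concentration producing complete growth inhibition.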 Some results are limits rather than exact numbers.

Consider `COc1cc(C2CC(=O)Nc3c2cc(Br)c2ccccc32)cc(Br)c1OC` (configuration not stated), for which the GI50 in the test on A498 renal is 1 µM; in the test on HT29 colon, 0.514 µM; with OVCAR-4 ovarian it was 0.349 µM; in the test with OVCAR-8 ovarian, 1.74 µM; in the test with SF-268 CNS it was 4.63 µM; in the test on T-47D breast it was 1.61 µM. The GI50 with U251 CNS is 1.42 µM; in the test on UACC-62 melanoma, 1.64 µM. The TGI in the test with A498 renal was 3.29 µM; with HT29 colon, 4.21 µM; in the test with OVCAR-4 ovarian, 1.44 µM; in the test on OVCAR-8 ovarian it was > 100 µM; with SF-268 CNS, > 100 µM; with T-47D breast, 5.26 µM. Further, the total growth inhibition concentration (TGI) with U251 CNS was 3.7 µM; in the test on UACC-62 melanoma it was > 100 µM.

With `Nc1cc2cccc[n+]2c2cccc(Cl)c12`, the GI50 is 56.2 µM in the test on HT29 colon; 4.1 µM in the test with KM12 colon; 17.1 µM in the test on OVCAR-4 ovarian; 24.1 µM in the test on OVCAR-8 ovarian; 4.94 µM in the test on SF-268 CNS; 9.86 µM in the test on T-47D breast. Moreover, the values for the GI50 in the test on TK-10 renal, in the test with U251 CNS and in the test with UACC-62 melanoma were 94.7 µM, 6.36 µM and 24.7 µM, respectively. For the same compound, the TGI with KM12 colon amounted to 65.2 µM; in the test with OVCAR-4 ovarian, 72.8 µM; in the test with SF-268 CNS, 35.6 µM; with U251 CNS, 33.8 µM; with UACC-62 melanoma it was 59.8 µM.

In the case of `CCN(CC)CCC(CNc1c(C)cnc2cc(Cl)ccc12)c1ccc(Cl)cc1` (configuration not stated), the GI50 in the test on KM12 colon was 11 µM; in the test on OVCAR-4 ovarian, 4.17 µM; in the test on OVCAR-8 ovarian, 10.8 µM; in the test on SF-268 CNS, 11.1 µM; in the test with T-47D breast it was 2.57 µM; with TK-10 renal it was 10.9 µM. The GI50 in the test with U251 CNS was 3.83 µM; in the test with UACC-62 melanoma, 2.23 µM. The concentration for total growth inhibition (TGI) was determined as 25.3 µM in the test on KM12 colon; 21.1 µM in the test on OVCAR-4 ovarian; 25.5 µM in the test with OVCAR-8 ovarian; 26.1 µM in the test with SF-268 CNS; 10.5 µM in the test on T-47D breast; 23.8 µM in the test with TK-10 renal. The results for the TGI with U251 CNS and in the test with UACC-62 melanoma were 13.2 µM and 5.16 µM, respectively.

Regarding `O=c1c(-c2ccccc2)coc2cc(OC/C(=N/O)c3ccc(F)cc3)ccc12`, the GI50 was 27.8 µM with HT29 colon; 14.5 µM in the test on KM12 colon; 13.7 µM in the test with OVCAR-4 ovarian; 16.9 µM in the test on OVCAR-8 ovarian; 21.5 µM in the test on SF-268 CNS; 7.87 µM in the test with T-47D breast. In addition, the results for the GI50 in the test on TK-10 renal, in the test on U251 CNS and in the test on UACC-62 melanoma were 16.9 µM, 18.2 µM and 15.8 µM, respectively. In addition, the TGI in the test on HT29 colon is > 100 µM; with KM12 colon, 33.1 µM; with OVCAR-4 ovarian, 59.3 µM; with OVCAR-8 ovarian it was 43.4 µM; with SF-268 CNS, 50.6 µM; in the test with T-47D breast, 68.5 µM. Moreover, the TGI was 39.5 µM with TK-10 renal, 36.8 µM with U251 CNS and 31.8 µM in the test on UACC-62 melanoma.

On to `NCCC(=O)NC(Cc1cnc[nH]1)C(=O)O` (configuration not stated), for which the TGI in the test with HT29 colon, with KM12 colon, with OVCAR-4 ovarian, with OVCAR-8 ovarian, with SF-268 CNS and in the test with T-47D breast was > 100 µM each time. Further, the TGI in the test with TK-10 renal and in the test with U251 CNS was > 100 µM each time.

Regarding `CCSc1nc(N)c(C#N)c(-c2ccco2)c1C#N`, the GI50 is 26.5 µM with A498 renal; 56.4 µM with HT29 colon; 27.4 µM with KM12 colon; > 100 µM with OVCAR-4 ovarian; 53.6 µM with OVCAR-8 ovarian; 32.1 µM in the test with SF-268 CNS. Further, the GI50 was 21.3 µM with TK-10 renal, 22.7 µM with U251 CNS and 32.6 µM with UACC-62 melanoma. Moreover, the concentration for total growth inhibition (TGI) in the test on A498 renal, with HT29 colon, in the test on KM12 colon, in the test on OVCAR-4 ovarian, in the test on OVCAR-8 ovarian and with SF-268 CNS was > 100 µM each time. In addition, the total growth inhibition concentration (TGI) in the test with TK-10 renal was 78.1 µM; in the test with U251 CNS, 83.7 µM; with UACC-62 melanoma it was > 100 µM.

Take `COc1ccc(Cc2nc3ccccc3s2)cc1OC`: the concentration for total growth inhibition (TGI) in the test on A498 renal amounted to 49.5 µM; in the test with HT29 colon, 35.8 µM; in the test with KM12 colon, 32.2 µM; in the test with OVCAR-4 ovarian, 37.7 µM; in the test on OVCAR-8 ovarian, 30.9 µM; in the test with SF-268 CNS it was 29.5 µM. Moreover, the total growth inhibition concentration (TGI) in the test with TK-10 renal was determined as 84.7 µM; in the test with U251 CNS, 27.7 µM; in the test with UACC-62 melanoma, 31.4 µM.

Take `CC(=O)[CH-]C(=O)Nc1ccccc1.CC(=O)[CH-]C(=O)Nc1ccccc1.CC[O-].CC[O-].[Ti+4]`: the GI50 with A498 renal, in the test with HT29 colon, in the test with KM12 colon, in the test on OVCAR-4 ovarian, in the test with OVCAR-8 ovarian and in the test with SF-268 CNS was > 100 µM throughout. Besides, the GI50 in the test on TK-10 renal, with U251 CNS and in the test on UACC-62 melanoma was > 100 µM throughout. The total growth inhibition concentration (TGI) with A498 renal, in the test with HT29 colon, with KM12 colon, in the test with OVCAR-4 ovarian, in the test on OVCAR-8 ovarian and with SF-268 CNS was > 100 µM in each case. In addition, the TGI with TK-10 renal, in the test with U251 CNS and with UACC-62 melanoma was > 100 µM in each case.

(Values after PubChem BioAssay (NCI).)
